# Assay results: BindingDB's records for doi:10.1021/jm00155a029 (1986)
# Test: Compound was tested for the inhibitory effect against Gamma-amino-N-butyrate transaminase from bacteria
smiles,measurement,value
NC/C=C(\CF)C(=O)O [(2Z)-4-ammonio-2-(fluoromethyl)but-2-enoate],Ki,9 µM
